Test results reported in US20240209001A1, “HETEROCYCLIC DERIVATIVES AS JANUS KINASE INHIBITORS” (CHIESI FARMACEUTICI S.P. A., priority 2021, published 2024).

Legend:
JAK 1 = JAK 1 (Homo sapiens (Human), UniProt P23458); test: Biochemical potency on JAK1, TR-FRET LANCE Ultra kinase assay (compounds 1-92); settings: ATP at Km, read-out: JAK1 inhibitory activity (pIC50 class) (converted)
Description: (§1) Biochemical Potency on JAK1, JAK2, JAK3 and Tyk2 Assay Principle The objective of this study was to assess the capability of compounds to inhibit all 4 JAK isoforms activity in a cell-free environment. Assay for JAK 1, JAK 2, JAK 3 and TYK2 were performed by Time-resolved fluorescence resonance energy transfer (TR-FRET) technology. It consists in the interaction of two labelled binding partners detected by the energy transfer from an excited donor to an acceptor dye and measurement of light emission by the acceptor dye. LANCE Ultra kinase assay was used. In presence of JAK 1, JAK 2, JAK 3 and TYK2 kinases and ATP (corresponding to Km), the ULight peptide substrate (LANCE Ulight-JAK-1 ([…]) Peptide, Perkin Elmer, TRF0121) is phosphorylated. It is then captured by Eu-anti-phospho-substrate antibody (LANCE Eu-W1024 Anti-phosphotyrosine (PT66), Perkin Elmer, AD0069), which bring the Eu-chelate donor and ULight acceptor dyes into close proximity. Upon excitation at 320 nm, the Eu-chelate transfers its energy to the ULight dye, resulting in a fluorescent light emission at 665 nm. Compound Testing Serial dilutions of compounds in pure DMSO are prepared from 10 mM DMSO stock solutions. Compounds were tested in 384-well plate for 11 consecutive 5-fold dilutions starting from 20 μM highest concentration (20 μM-[…]). 200 nL of compound were transferred from mother plate to test plate by using Mosquito (TTP labtech). Assay was performed in 384-well Perkin Elmer test plate in 20 μL assay volume (kinase reaction) and 40 μL total volume (stopping reagent and antibody detection reagents). In 10 μL of substrate solution (peptide+ATP) 30/50/20/10 nM of peptide and 20/0.7/0.2/12 μM of ATP were added for JAK 1, JAK 2, JAK 3 and TYK2 respectively. 10 μL of enzyme solution was added to kinase reaction at these concentrations: 0.15/0.083/0.025/0.144 ng/μL of JAK 1, JAK 2, JAK 3 and TYK2 respectively. After shaking and 1.5 h of incubation at r.t., 20 μL of Stop (10 μL EDTA) and Detection mixture (10 μL Europium-anti-phospho antibody, final: 0.5 nM) were added. Reading was performed after 1 h of incubation on a EnVision 2104 reader (Perkin Elmer). Calculation of IC50 data, curves and QC analysis was performed by using Excel tool and GraphPadPrism software, v9. Briefly, individual concentration-effect curves are generated by plotting the logarithm of the tested concentration of tested compounds (X) vs. corresponding percent inhibition values (Y) using least squares (ordinary) fit. Best fit IC50 values are calculated using Log(inhibitor) vs. normalized response-Variable slope equation, where Y=100/(1+10^((Log IC50-X)*HillSlope)). QC criteria parameters (Z', S:B, R2, HillSlope) were checked for every IC50 curve. Calculation of IC50 data, curves and QC analysis were made using Excel tools and GraphPadPrism software. QC criteria parameters: Z'≥0.5, Hill Slope range 0.5 to 5, S:B>2.

JAK 2 = JAK 2 (Homo sapiens (Human), UniProt O60674); test: Biochemical potency on JAK2, TR-FRET LANCE Ultra kinase assay (compounds 1-92); settings: ATP at Km, read-out: JAK2 inhibitory activity (pIC50 class) (converted)
Description: as §1

JAK 3 = JAK 3 (Homo sapiens (Human), UniProt P52333); test: Biochemical potency on JAK3, TR-FRET LANCE Ultra kinase assay (compounds 1-92); settings: ATP at Km, read-out: JAK3 inhibitory activity (pIC50 class) (converted)
Description: as §1

TYK2 = TYK2 (Homo sapiens (Human), UniProt P29597); test: Biochemical potency on Tyk2, TR-FRET LANCE Ultra kinase assay (compounds 1-92); settings: ATP at Km, read-out: Tyk2 inhibitory activity (pIC50 class) (converted)
Description: as §1

TYK2, sequence (P29597 whole entry): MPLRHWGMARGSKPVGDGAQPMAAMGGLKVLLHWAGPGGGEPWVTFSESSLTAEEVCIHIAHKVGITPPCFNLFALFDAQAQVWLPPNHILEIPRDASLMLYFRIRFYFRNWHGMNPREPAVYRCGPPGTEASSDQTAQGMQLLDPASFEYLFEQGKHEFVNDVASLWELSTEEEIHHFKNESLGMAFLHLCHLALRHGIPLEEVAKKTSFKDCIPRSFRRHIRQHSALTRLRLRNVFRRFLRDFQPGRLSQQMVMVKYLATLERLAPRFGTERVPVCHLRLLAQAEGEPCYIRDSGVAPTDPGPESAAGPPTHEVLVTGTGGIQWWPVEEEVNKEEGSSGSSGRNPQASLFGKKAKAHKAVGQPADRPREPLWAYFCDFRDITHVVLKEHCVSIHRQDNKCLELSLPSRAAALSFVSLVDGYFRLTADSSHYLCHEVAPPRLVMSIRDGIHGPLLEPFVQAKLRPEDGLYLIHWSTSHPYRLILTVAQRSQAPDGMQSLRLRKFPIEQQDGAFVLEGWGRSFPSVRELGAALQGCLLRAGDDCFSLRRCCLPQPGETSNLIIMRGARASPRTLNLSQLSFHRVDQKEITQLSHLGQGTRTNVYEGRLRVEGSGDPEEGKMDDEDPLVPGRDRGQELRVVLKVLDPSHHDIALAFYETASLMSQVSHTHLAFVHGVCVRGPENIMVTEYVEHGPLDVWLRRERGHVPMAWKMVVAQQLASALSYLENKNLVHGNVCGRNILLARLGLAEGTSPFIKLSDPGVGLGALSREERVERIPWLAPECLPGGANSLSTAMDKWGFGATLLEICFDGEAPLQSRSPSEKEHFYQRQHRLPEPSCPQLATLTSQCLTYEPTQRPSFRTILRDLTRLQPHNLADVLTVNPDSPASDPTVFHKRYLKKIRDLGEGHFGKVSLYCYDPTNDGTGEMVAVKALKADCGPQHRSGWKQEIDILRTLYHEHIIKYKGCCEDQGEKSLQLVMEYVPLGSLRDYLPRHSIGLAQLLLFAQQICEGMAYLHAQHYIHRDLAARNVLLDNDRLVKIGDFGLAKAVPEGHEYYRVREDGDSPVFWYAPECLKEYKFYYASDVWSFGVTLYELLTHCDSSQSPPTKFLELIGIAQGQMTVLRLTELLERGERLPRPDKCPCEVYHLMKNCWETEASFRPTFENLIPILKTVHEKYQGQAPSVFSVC
JAK 3, sequence (P52333 whole entry): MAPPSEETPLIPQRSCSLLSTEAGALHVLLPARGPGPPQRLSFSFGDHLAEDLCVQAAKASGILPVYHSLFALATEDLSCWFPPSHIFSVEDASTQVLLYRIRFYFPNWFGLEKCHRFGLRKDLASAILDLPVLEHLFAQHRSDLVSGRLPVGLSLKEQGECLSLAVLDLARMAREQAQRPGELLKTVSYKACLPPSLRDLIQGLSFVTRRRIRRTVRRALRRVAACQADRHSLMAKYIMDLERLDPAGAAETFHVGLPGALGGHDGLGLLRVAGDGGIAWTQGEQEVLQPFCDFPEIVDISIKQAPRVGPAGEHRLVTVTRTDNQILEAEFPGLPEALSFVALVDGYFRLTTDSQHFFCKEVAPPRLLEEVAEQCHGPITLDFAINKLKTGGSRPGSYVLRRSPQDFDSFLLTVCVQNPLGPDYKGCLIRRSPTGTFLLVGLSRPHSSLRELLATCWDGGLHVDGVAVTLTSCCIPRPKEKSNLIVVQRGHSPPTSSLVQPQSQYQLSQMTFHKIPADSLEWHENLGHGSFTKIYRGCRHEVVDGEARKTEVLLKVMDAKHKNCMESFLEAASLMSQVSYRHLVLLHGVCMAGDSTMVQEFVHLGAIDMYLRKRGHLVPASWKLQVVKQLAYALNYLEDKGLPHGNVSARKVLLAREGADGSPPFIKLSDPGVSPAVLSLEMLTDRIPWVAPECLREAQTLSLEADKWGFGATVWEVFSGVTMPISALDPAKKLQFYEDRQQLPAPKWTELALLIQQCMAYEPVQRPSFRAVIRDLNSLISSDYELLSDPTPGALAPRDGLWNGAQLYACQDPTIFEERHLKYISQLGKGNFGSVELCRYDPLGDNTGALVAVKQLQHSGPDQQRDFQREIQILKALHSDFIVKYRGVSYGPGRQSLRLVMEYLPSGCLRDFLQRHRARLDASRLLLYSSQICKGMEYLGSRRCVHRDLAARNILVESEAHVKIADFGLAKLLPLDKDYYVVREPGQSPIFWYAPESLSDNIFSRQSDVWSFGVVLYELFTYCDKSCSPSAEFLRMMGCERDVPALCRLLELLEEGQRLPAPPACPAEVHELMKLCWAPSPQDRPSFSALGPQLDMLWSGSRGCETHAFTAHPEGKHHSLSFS
JAK 2, sequence (O60674 whole entry): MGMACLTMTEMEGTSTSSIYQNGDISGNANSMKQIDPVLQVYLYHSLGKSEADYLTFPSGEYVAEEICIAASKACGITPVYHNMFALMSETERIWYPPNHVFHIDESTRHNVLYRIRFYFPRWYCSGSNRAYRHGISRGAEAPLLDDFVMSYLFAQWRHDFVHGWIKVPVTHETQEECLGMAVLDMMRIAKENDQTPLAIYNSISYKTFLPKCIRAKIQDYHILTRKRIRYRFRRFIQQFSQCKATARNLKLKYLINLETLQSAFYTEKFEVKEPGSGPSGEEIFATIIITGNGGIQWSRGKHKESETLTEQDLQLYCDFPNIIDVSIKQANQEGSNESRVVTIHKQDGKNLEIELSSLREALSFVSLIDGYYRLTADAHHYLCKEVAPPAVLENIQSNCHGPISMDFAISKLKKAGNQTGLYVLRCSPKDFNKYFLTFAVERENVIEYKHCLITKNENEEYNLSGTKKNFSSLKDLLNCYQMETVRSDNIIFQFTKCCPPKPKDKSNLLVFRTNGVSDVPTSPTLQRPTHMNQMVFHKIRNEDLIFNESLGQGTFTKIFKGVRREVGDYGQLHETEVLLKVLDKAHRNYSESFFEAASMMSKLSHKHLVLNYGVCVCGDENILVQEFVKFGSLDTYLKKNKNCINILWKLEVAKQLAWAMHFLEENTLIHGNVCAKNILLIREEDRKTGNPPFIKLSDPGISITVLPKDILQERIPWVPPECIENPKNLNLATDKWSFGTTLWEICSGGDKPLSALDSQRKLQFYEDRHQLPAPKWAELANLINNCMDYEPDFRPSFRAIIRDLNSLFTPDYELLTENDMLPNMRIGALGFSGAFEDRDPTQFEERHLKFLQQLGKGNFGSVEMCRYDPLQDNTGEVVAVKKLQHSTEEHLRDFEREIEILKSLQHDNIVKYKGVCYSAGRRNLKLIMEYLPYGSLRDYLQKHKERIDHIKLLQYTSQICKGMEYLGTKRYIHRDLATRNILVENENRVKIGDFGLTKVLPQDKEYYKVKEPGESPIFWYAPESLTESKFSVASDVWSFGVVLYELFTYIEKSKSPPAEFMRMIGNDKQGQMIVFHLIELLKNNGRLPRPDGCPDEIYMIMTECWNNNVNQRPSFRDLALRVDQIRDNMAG
JAK 1, sequence (P23458 whole entry, canonical isoform): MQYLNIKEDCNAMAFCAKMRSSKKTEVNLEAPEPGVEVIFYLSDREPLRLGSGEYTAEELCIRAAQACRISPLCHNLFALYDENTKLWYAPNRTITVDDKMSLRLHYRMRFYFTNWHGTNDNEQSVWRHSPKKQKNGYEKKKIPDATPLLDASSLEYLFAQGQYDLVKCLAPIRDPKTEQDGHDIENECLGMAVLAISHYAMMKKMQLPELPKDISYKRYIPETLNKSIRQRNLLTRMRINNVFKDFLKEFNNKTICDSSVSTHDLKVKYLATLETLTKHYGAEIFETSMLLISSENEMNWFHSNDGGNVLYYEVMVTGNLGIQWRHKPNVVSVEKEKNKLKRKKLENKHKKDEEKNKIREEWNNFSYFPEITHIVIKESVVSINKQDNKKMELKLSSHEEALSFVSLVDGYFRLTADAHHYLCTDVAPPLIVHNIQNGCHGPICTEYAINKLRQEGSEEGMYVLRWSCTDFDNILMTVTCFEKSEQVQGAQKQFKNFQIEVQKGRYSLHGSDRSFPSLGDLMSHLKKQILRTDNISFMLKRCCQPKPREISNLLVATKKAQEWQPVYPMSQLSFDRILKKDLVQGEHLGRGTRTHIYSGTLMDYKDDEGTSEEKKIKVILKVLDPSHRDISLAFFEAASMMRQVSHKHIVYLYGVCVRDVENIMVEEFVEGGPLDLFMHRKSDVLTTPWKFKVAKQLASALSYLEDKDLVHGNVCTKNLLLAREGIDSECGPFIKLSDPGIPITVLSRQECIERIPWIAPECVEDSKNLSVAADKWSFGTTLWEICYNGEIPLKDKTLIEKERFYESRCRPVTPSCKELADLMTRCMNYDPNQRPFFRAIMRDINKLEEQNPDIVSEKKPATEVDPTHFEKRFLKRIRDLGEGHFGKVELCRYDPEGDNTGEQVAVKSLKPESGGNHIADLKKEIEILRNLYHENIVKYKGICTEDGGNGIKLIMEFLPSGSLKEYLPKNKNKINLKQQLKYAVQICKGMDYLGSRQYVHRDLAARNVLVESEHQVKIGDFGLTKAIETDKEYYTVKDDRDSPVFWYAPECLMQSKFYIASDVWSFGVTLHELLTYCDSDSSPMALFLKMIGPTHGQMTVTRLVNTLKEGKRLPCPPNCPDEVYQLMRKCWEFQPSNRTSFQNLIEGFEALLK

| SMILES | IC50 (JAK 1) | IC50 (JAK 2) | IC50 (JAK 3) | IC50 (TYK2) |
| --- | --- | --- | --- | --- |
| CCCS(=O)(=O)Nc1ccc(-n2nc(C(=O)NCCCN3CCOCC3)c3cnc(-c4cnn5cccnc45)cc32)c(OC)c1 [Example 47, 1-(2-methoxy-4-(propylsulfonamido)phenyl)-N-(3-morpholinopropyl)-6-(pyrazolo[1,5-a]pyrimidin-3-yl)-1H-pyrazolo[4,3-c]pyridine-3-carboxamide] | 5.01 to 50.1 nM | 5.01 to 50.1 nM | 5.01 to 50.1 nM | > 50.1 nM |
| COc1cc(NS(C)(=O)=O)ccc1-n1nc(NCCCN(C)C)c2cnc(-c3cnn4cccnc34)cc21 [Example 22, N-(4-(3-((3-(dimethylamino)propyl)amino)-6-(pyrazolo[1,5-a]pyrimidin-3-yl)-1H-pyrazolo[4,3-c]pyridin-1-yl)-3-methoxyphenyl)methanesulfonamide] | ≤ 5.01 nM | ≤ 5.01 nM | ≤ 5.01 nM | 5.01 to 50.1 nM |
| COc1cc(CNS(C)(=O)=O)ccc1-n1nc(NCCN2CCOCC2)c2cnc(-c3cnn4cccnc34)cc21 [Example 53, N-(3-methoxy-4-(3-((2-morpholinoethyl)amino)-6-(pyrazolo[1,5-a]pyrimidin-3-yl)-1H-pyrazolo[4,3-c]pyridin-1-yl)benzyl)methanesulfonamide] | ≤ 5.01 nM | ≤ 5.01 nM | ≤ 5.01 nM | 5.01 to 50.1 nM |
| COc1cc(CNS(C)(=O)=O)ccc1-n1nc(C)c2cnc(-c3cnn4cccnc34)cc21 [Example 63, N-(3-methoxy-4-(3-methyl-6-(pyrazolo[1,5-a]pyrimidin-3-yl)-1H-pyrazolo[4,3-c]pyridin-1-yl)benzyl)methanesulfonamide] | ≤ 5.01 nM | ≤ 5.01 nM | ≤ 5.01 nM | 5.01 to 50.1 nM |
| COc1cc(NS(C)(=O)=O)ccc1-n1nc(NCCO)c2cnc(-c3cnn4cccnc34)cc21 [Example 26, N-(4-(3-((2-hydroxyethyl)amino)-6-(pyrazolo[1,5-a]pyrimidin-3-yl)-1H-pyrazolo[4,3-c]pyridin-1-yl)-3-methoxyphenyl)methanesulfonamide] | ≤ 5.01 nM | ≤ 5.01 nM | ≤ 5.01 nM | 5.01 to 50.1 nM |
| COc1cc(CNS(C)(=O)=O)c(Cl)cc1-n1nc(NCCN2CCOCC2)c2cnc(-c3cnn4cccnc34)cc21 [Example 58, N-(2-chloro-5-methoxy-4-(3-((2-morpholinoethyl)amino)-6-(pyrazolo[1,5-a]pyrimidin-3-yl)-1H-pyrazolo[4,3-c]pyridin-1-yl)benzyl)methanesulfonamide] | ≤ 5.01 nM | 5.01 to 50.1 nM | 5.01 to 50.1 nM | 5.01 to 50.1 nM |
| COc1cc(CNC(C)=O)ccc1-n1nc(C)c2cnc(-c3cnn4cccnc34)cc21 [Example 70, N-(3-methoxy-4-(3-methyl-6-(pyrazolo[1,5-a]pyrimidin-3-yl)-1H-pyrazolo[4,3-c]pyridin-1-yl)benzyl)acetamide] | > 50.1 nM | > 50.1 nM | > 50.1 nM | > 50.1 nM |
| COc1cc(NS(=O)(=O)c2cnn(C)c2)ccc1-n1nc(C)c2cnc(-c3cnn4cccnc34)cc21 [Example 10, N-(3-methoxy-4-(3-methyl-6-(pyrazolo[1,5-a]pyrimidin-3-yl)-1H-pyrazolo[4,3-c]pyridin-1-yl)phenyl)-1-methyl-1H-pyrazole-4-sulfonamide] | ≤ 5.01 nM | ≤ 5.01 nM | 5.01 to 50.1 nM | 5.01 to 50.1 nM |
| COc1cc(NS(C)(=O)=O)ccc1-n1nc(C(=O)NCCN(C)C)c2cnc(-c3cnn4cccnc34)cc21 [Example 44, N-(2-(dimethylamino)ethyl)-1-(2-methoxy-4-(methylsulfonamido)phenyl)-6-(pyrazolo[1,5-a]pyrimidin-3-yl)-1H-pyrazolo[4,3-c]pyridine-3-carboxamide] | ≤ 5.01 nM | ≤ 5.01 nM | ≤ 5.01 nM | 5.01 to 50.1 nM |
| COc1cc(CO)ccc1-n1nc(C)c2cnc(-c3cnn4cccnc34)cc21 [Example 66, (3-methoxy-4-(3-methyl-6-(pyrazolo[1,5-a]pyrimidin-3-yl)-1H-pyrazolo[4,3-c]pyridin-1-yl)phenyl)methanol] | 5.01 to 50.1 nM | 5.01 to 50.1 nM | 5.01 to 50.1 nM | > 50.1 nM |

Continued, values first:

| IC50 (JAK 1) | IC50 (JAK 2) | IC50 (JAK 3) | IC50 (TYK2) | SMILES |
| --- | --- | --- | --- | --- |
| ≤ 5.01 nM | ≤ 5.01 nM | ≤ 5.01 nM | 5.01 to 50.1 nM | COc1cc(NS(C)(=O)=O)ccc1-n1nc(NCCN2CCOCC2)c2cnc(-c3cnc4cccnn34)cc21 [Example 76, N-(4-(6-(imidazo[1,2-b]pyridazin-3-yl)-3-((2-morpholinoethyl)amino)-1H-pyrazolo[4,3-c]pyridin-1-yl)-3-methoxyphenyl)methanesulfonamide] |
| ≤ 5.01 nM | ≤ 5.01 nM | ≤ 5.01 nM | ≤ 5.01 nM | COc1cc(NS(C)(=O)=O)ccc1-n1nc(NCCN2CCOCC2)c2cnc(Nc3ncc[nH]c3=O)cc21 [Example 87, N-(3-methoxy-4-(3-((2-morpholinoethyl)amino)-6-((3-oxo-3,4-dihydropyrazin-2-yl)amino)-1H-pyrazolo[4,3-c]pyridin-1-yl)phenyl)methanesulfonamide] |
| ≤ 5.01 nM | 5.01 to 50.1 nM | 5.01 to 50.1 nM | 5.01 to 50.1 nM | COc1cc(NS(=O)(=O)CC(F)F)ccc1-n1nc(C)c2cnc(-c3cnn4cccnc34)cc21 [Example 73, 2,2-difluoro-N-(3-methoxy-4-(3-methyl-6-(pyrazolo[1,5-a]pyrimidin-3-yl)-1H-pyrazolo[4,3-c]pyridin-1-yl)phenyl)ethane-1-sulfonamide] |
| ≤ 5.01 nM | ≤ 5.01 nM | ≤ 5.01 nM | 5.01 to 50.1 nM | CCCS(=O)(=O)Nc1ccc(-n2nc(NC)c3cnc(Nc4ncc[nH]c4=O)cc32)c(OC)c1 [Example 91, N-(3-methoxy-4-(3-(methylamino)-6-((3-oxo-3,4-dihydropyrazin-2-yl)amino)-1H-pyrazolo[4,3-c]pyridin-1-yl)phenyl)propane-1-sulfonamide] |
| ≤ 5.01 nM | ≤ 5.01 nM | ≤ 5.01 nM | ≤ 5.01 nM | COc1cc(NS(C)(=O)=O)ccc1-n1nc(NCCN2C3CCC2COC3)c2cnc(Nc3ncc[nH]c3=O)cc21 [Example 90, N-(4-(3-((2-(3-oxa-8-azabicyclo[3.2.1]octan-8-yl)ethyl)amino)-6-((3-oxo-3,4-dihydropyrazin-2-yl)amino)-1H-pyrazolo[4,3-c]pyridin-1-yl)-3-methoxyphenyl)methanesulfonamide] |
| 5.01 to 50.1 nM | ≤ 5.01 nM | ≤ 5.01 nM | 5.01 to 50.1 nM | COc1cc(NS(=O)(=O)c2cnn(C)c2)ccc1-n1nc(C)c2cnc(Nc3ncc[nH]c3=O)cc21 [Example 86, N-(3-methoxy-4-(3-methyl-6-((3-oxo-3,4-dihydropyrazin-2-yl)amino)-1H-pyrazolo[4,3-c]pyridin-1-yl)phenyl)-1-methyl-1H-pyrazole-4-sulfonamide] |
| ≤ 5.01 nM | ≤ 5.01 nM | ≤ 5.01 nM | ≤ 5.01 nM | COc1cc(NS(C)(=O)=O)ccc1-n1nc(C)c2cnc(Nc3ncc[nH]c3=O)cc21 [Example 85, N-(3-methoxy-4-(3-methyl-6-((3-oxo-3,4-dihydropyrazin-2-yl)amino)-1H-pyrazolo[4,3-c]pyridin-1-yl)phenyl)methanesulfonamide] |
| 5.01 to 50.1 nM | 5.01 to 50.1 nM | 5.01 to 50.1 nM | > 50.1 nM | COc1cc(NC(=O)c2ccccc2)ccc1-n1nc(NCCN(C)C)c2cnc(-c3cnn4cccnc34)cc21 [Example 75, N-(4-(3-((2-(dimethylamino)ethyl)amino)-6-(pyrazolo[1,5-a]pyrimidin-3-yl)-1H-pyrazolo[4,3-c]pyridin-1-yl)-3-methoxyphenyl)benzamide] |
